# Experimental data taken from PubChem BioAssay (NCI).
# Where “and” joins values, the source holds several entries; their conditions need not be identical. Equal entries are not always repeated.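 A five-concentration, 48-hour dose response in 96-well plates underlies each endpoint, interpolated linearly between surrounding concentrations. GI50: concentration for 50% inhibition of growth. TGI is the concentration that stops growth completely.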
# Tests used:
# Experiment in all cases: DTP human tumour cell line panel, 48 h
# [1] = test system: A549 NSCLC
# [2] = test system: ACHN renal
# [3] = test system: DU-145 prostate
# [4] = test system: HOP-92 NSCLC
# [5] = test system: HS 578T breast
# [6] = test system: MOLT-4 leukemia
# [7] = test system: NCI-H522 lung
# [8] = test system: NCI/ADR-RES ovarian
# [9] = test system: SN12C renal
# [10] = test system: UO-31 renal
Structure (SMILES),GI50 [1],TGI [1],GI50 [2],TGI [2],GI50 [3],TGI [3],GI50 [4],TGI [4],GI50 [5],TGI [5],GI50 [6],TGI [6],GI50 [7],TGI [7],GI50 [8],TGI [8],GI50 [9],TGI [9],GI50 [10],TGI [10]
Clc1cc(Br)ccc1-c1ccc(CNCC2CCNCC2)o1,1.9 µM,3.77 µM,1.93 µM,3.66 µM,1.75 µM,3.21 µM,1.4 µM,4.9 µM,1.91 µM,4.37 µM,1.7 µM,3.57 µM,1.82 µM,3.72 µM,3.13 µM,9.69 µM,2.23 µM,7.69 µM,1.66 µM,3.24 µM
COc1cc2c(cc1OC)[C@@H]1C(=O)c3ccc4c(c3O[C@@H]1CO2)C[C@H](C(C)C)O4,0.759 µM,> 57.8 µM,3.13 µM,> 46.4 µM,14.5 µM,> 100 µM,2.04 µM,22.3 µM,8.15 µM,> 46.6 µM,6.81 µM,> 69.2 µM,0.961 µM,,0.248 µM,> 29.1 µM,10.6 µM,> 76.8 µM,3.75 µM,97.9 µM
Cc1[nH]c2ccccc2c1CO,38.3 µM,> 100 µM,22.8 µM,88.8 µM,0.0457 µM,18.1 µM,14.6 µM,40.9 µM,15.6 µM,44 µM,25.1 µM,91.6 µM,12.8 µM,28.9 µM,19.5 µM,60.3 µM,15.8 µM,32.1 µM,10.9 µM,31.7 µM
COc1ccc(C)c2sc(N(Cc3cccnc3)C(=O)c3ccc(C#N)cc3)nc12,43.6 µM,> 100 µM,34.7 µM,> 100 µM,51.9 µM,> 100 µM,20.3 µM,> 100 µM,50.2 µM,> 100 µM,33.5 µM,> 100 µM,29.7 µM,> 100 µM,37.7 µM,> 100 µM,44.2 µM,> 100 µM,23.4 µM,> 100 µM
COc1cc2c3c(n(CCCN=[N+]=[N-])c(=O)c2cc1OC)-c1ccc([N+](=O)[O-])cc1C3=O,> 100 µM,> 100 µM,> 100 µM,> 100 µM,34.4 µM,> 100 µM,29.8 µM,> 100 µM,48 µM,> 100 µM,63.3 µM,> 100 µM,16.8 µM,> 100 µM,80 µM,> 100 µM,> 100 µM,> 100 µM,20 µM,> 100 µM
CCCCCSc1ccc2nc(NC(=O)OCC)sc2c1,2.37 µM,> 100 µM,0.908 µM,> 100 µM,1.72 µM,> 100 µM,1.44 µM,67.8 µM,0.944 µM,> 100 µM,0.85 µM,> 100 µM,0.245 µM,0.865 µM,0.357 µM,3.82 µM,0.959 µM,> 100 µM,1.39 µM,> 100 µM
CCCN(CCC)c1ccc(/C=N/NC(=O)c2cccnc2)c(C)c1,15.7 µM,36.8 µM,24.5 µM,> 100 µM,16.4 µM,43.9 µM,11.3 µM,26.2 µM,13.9 µM,48.2 µM,16.5 µM,42.6 µM,12.6 µM,30 µM,15.2 µM,51.5 µM,17.5 µM,41.2 µM,15.6 µM,38.1 µM
COc1ccc(O)c(/C=N\Nc2ccccc2)c1,,48.4 µM,,> 100 µM,,> 100 µM,,> 100 µM,,> 100 µM,,18.2 µM,,49.2 µM,,> 100 µM,,> 100 µM,,> 100 µM
Cc1ccc(-c2cc(C(=O)Nc3ccc(S(=O)(=O)N4CCCCC4)cc3)[nH]n2)c(O)c1,> 100 µM,> 100 µM,> 100 µM,> 100 µM,> 100 µM,> 100 µM,> 100 µM,> 100 µM,> 100 µM,> 100 µM,55.1 µM,> 100 µM,> 100 µM,> 100 µM,> 100 µM,> 100 µM,> 100 µM,> 100 µM,> 100 µM,> 100 µM
COc1ccc(OC)c(N2CC(O)=C(c3nc4ccccc4s3)C2=N)c1,71.2 µM,> 100 µM,51.6 µM,> 100 µM,> 100 µM,> 100 µM,40.6 µM,> 100 µM,34.5 µM,> 100 µM,4.16 µM,> 100 µM,17.9 µM,78.1 µM,88.9 µM,> 100 µM,58 µM,> 100 µM,36.2 µM,> 100 µM
O=C1OC2(c3ccc(O)cc3Oc3cc(O)ccc32)c2cccc3cccc1c23,19.7 µM,39.8 µM,16.7 µM,44 µM,18.9 µM,36.9 µM,19 µM,97.6 µM,22.2 µM,> 100 µM,31.6 µM,> 100 µM,17.5 µM,43.7 µM,31.7 µM,> 100 µM,22.1 µM,82.9 µM,17.1 µM,> 100 µM
CC(=O)O[C@@H]1c2c(c3c(=O)c4cccc(O)c4c(=O)c=3c2=[N+]=[N-])[C@H](OC(C)=O)[C@@H](OC(C)=O)[C@]1(C)O,0.0518 µM,1.16 µM and 0.228 µM,0.161 µM,0.374 µM and 0.3 µM,0.295 µM,1.05 µM and 1.17 µM,0.172 µM,1.84 µM and 0.355 µM,0.575 µM,0.881 µM and 3.54 µM,0.0675 µM,0.275 µM and 0.358 µM,0.0693 µM,0.776 µM and 0.201 µM,,0.658 µM,0.236 µM and 0.0851 µM,0.815 µM and 0.288 µM,0.167 µM,1.19 µM and 0.352 µM
COc1cc2c(/C=C3\C(=O)N(C)c4ccccc43)c[nH]c2cc1C,2.39 µM,> 66.8 µM,3.61 µM,55.7 µM,6.77 µM,> 66.3 µM,15.7 µM,79.4 µM,3.61 µM,> 38.8 µM,5.83 µM,> 64 µM,8.82 µM,> 87.5 µM,0.65 µM,23.3 µM,2 µM,> 73.5 µM,11.5 µM,> 62 µM
COc1cc(OC)c(C(=O)/C=C/c2ccc(C#N)cc2)c(OC)c1,1.85 µM,> 50 µM,1.29 µM,4.74 µM,1.54 µM,6.27 µM,1.34 µM,4.96 µM,1.93 µM,> 50 µM,1.44 µM,13 µM,1.04 µM,2.92 µM,1.4 µM,> 50 µM,1.82 µM,7.91 µM,1.29 µM,6.26 µM
COc1cccc(/C=C2\CCC(CN(C)C)C2=O)c1 (stereo not drawn),,42.7 µM,,25.5 µM,,9.29 µM,,33.9 µM,,> 89.4 µM,,5.19 µM,,6.15 µM,,6.56 µM,,22.8 µM,,20.1 µM
CCOC(=O)Cc1csc(NC(=O)C(OC(=O)c2ccc(Cl)cc2)c2ccccc2)n1 (stereo not drawn),47.1 µM,> 100 µM,62.1 µM,> 100 µM,72.7 µM,> 100 µM,27.2 µM,> 100 µM,54.8 µM,> 100 µM,26 µM,> 100 µM,46 µM,> 100 µM,41.1 µM,> 100 µM,37.8 µM,> 100 µM,47.1 µM,> 100 µM
